Laboratory results: the NIST ThermoML archive (doi:10.1016/j.jct.2011.10.027)
Numbers after ± are expanded uncertainties.

Key:
[1] = refractive index (Na D-line) (dimensionless); settings: 293.15 K; 101.33 kPa; Liquid; Standard Abbe refractometry
[2] = 101.33 kPa, Liquid, Vibrating tube method

Row | Compound | refractive index [1] | mass density ([2]; 293.15 K) | mass density ([2]; 298.15 K) | mass density ([2]; 303.15 K) | mass density ([2]; 313.15 K) | mass density ([2]; 323.15 K) | mass density ([2]; 333.15 K)
1 | Cc1ccccc1C [1,2-dimethylbenzene] | 1.5015 ± 0.0005 | 879.79 ± 0.23 kg/m3 | 875.58 ± 0.23 kg/m3 | 871.37 ± 0.24 kg/m3 | 862.78 ± 0.24 kg/m3 | 854.02 ± 0.24 kg/m3 | 845.2 ± 0.24 kg/m3
2 | Cc1cccc(C)c1 [1,3-dimethylbenzene] | 1.4936 ± 0.0005 | 864.18 ± 0.24 kg/m3 | 859.88 ± 0.24 kg/m3 | 855.56 ± 0.24 kg/m3 | 846.85 ± 0.24 kg/m3 | 837.92 ± 0.24 kg/m3 | 829.01 ± 0.24 kg/m3
3 | Cc1ccc(C)cc1 [1,4-dimethylbenzene] | 1.4922 ± 0.0005 | 861.02 ± 0.24 kg/m3 | 856.68 ± 0.24 kg/m3 | 852.33 ± 0.24 kg/m3 | 843.59 ± 0.24 kg/m3 | 834.81 ± 0.24 kg/m3 | 825.96 ± 0.24 kg/m3
4 | CCc1ccccc1 [ethylbenzene] | 1.4922 ± 0.0005 | 866.99 ± 0.24 kg/m3 | 862.59 ± 0.24 kg/m3 | 858.18 ± 0.24 kg/m3 | 849.33 ± 0.24 kg/m3 | 840.42 ± 0.24 kg/m3 | 831.42 ± 0.24 kg/m3
5 | O=[N+]([O-])c1ccccc1 [nitrobenzene] | 1.549 ± 0.0005 | 1203.13 ± 0.4 kg/m3 | 1198.17 ± 0.39 kg/m3 | 1193.21 ± 0.39 kg/m3 | 1183.3 ± 0.38 kg/m3 | 1173.38 ± 0.37 kg/m3 | 1163.45 ± 0.36 kg/m3
6 | Cc1ccccc1 [toluene] | 1.493 ± 0.0005 | 866.89 ± 0.13 kg/m3 | 862.24 ± 0.13 kg/m3 | 857.58 ± 0.13 kg/m3 | 848.2 ± 0.13 kg/m3 | 838.76 ± 0.13 kg/m3 | 829.22 ± 0.14 kg/m3
7 | CCCCN(CCCC)CCCC [tributylamine] | 1.4259 ± 0.0005 | 776.91 ± 0.24 kg/m3 | 773.18 ± 0.24 kg/m3 | 769.45 ± 0.24 kg/m3 | 761.97 ± 0.24 kg/m3 | 754.45 ± 0.24 kg/m3 | 746.88 ± 0.24 kg/m3
